Values after ≈ are worked out from the molar mass of the structure shown.

This data set in a line: Solubility of coloring agent in PGMEA. Format: physicochemical. Conditions: propylene glycol methyl ether acetate (PGMEA), organic solvent or mixture, thermodynamic from solid, approx. 100 mg in 1 L propylene glycol methyl ether acetate at 25° C., stirred 30 minutes. The method, then:
In the present disclosure, the solubility of the coloring agent having a structure represented by Formula (1) (that is, the specific coloring agent) is measured and obtained by the following method.
Under atmospheric pressure, approximately 100 mg (precisely weighed value is X mg) of the coloring agent having a structure represented by Formula (1) is added to 1 L of propylene glycol methyl ether acetate at 25° C., and the mixture is stirred for 30 minutes, allowed to stand for 5 minutes, and filtered. Thereafter, the filtrate is dried under reduced pressure at 80° C. for 2 hours and precisely weighed (precisely weighed value is Y mg), and the solubility of the specific coloring agent dissolved in propylene glycol methyl ether acetate is calculated from the following expression. PGMEA solubility (mg/L) of specific coloring agent=X—Y
Under atmospheric pressure, approximately 100 mg of the dispersion liquid of the coloring agents shown in Tables 1 to 4 (value of the coloring agents shown Tables 1 to 4 precisely weighed is defined as X mg) was added to 1 L of propylene glycol methyl ether acetate at 25° C., and the mixture was stirred for 30 minutes. Next, the mixture was allowed to stand for 5 minutes and filtered, and the filtrate was dried under reduced pressure at 80° C. for 2 hours and weighed precisely (value of the filtrate precisely weighed is defined as Y mg). Solubility of the coloring agents shown in Tables 1 to 4 dissolved in propylene glycol methyl ether acetate was calculated from the following expression.
Regarding `O=C1C(=O)/C(=C2/C=CC(=[N+]3CCC(C(=O)Oc4ccc(OC(=O)C5CC[N+](=C6C=C/C(=C7/C(=O)C(=O)C(c8ccc(N9CCC(C(=O)O)CC9)s8)=C7[O-])S6)CC5)cc4)CC3)S2)C([O-])=C1c1ccc(N2CCC(C(=O)O)CC2)s1` (centres unmarked) [A-cr-1], the solubility at 30 min lay in the range of 50 to 100 µg/mL (≈ 44.2 to 88.4 µM).
For the compound `O=C1C(c2ccc3cccc4c3c2NC2(N4)c3ccccc3-c3ccc(OC(=O)c4ccc(C(=O)Oc5ccc6c(c5)C5(N=c7/c(=C8/C(=O)C(c9ccc%10cccc%11c%10c9NC9(N%11)c%10ccccc%10-c%10ccccc%109)=C8O)ccc8cccc(c78)N5)c5ccccc5-6)cc4)cc32)=C(O)/C1=c1/ccc2cccc3c2c1=NC1(N3)c2ccccc2-c2ccccc21` (centres unmarked) [A-sq-1], the solubility at 30 min is less than 10 µg/mL.
Take `CC(=O)Nc1cc2c(cc1C1=C([O-])/C(=c3/cc4c(cc3NC(=O)c3ccc(C(=O)Nc5cc6c(cc5C5=C([O-])/C(=c7/cc8c(cc7NC(C)=O)=[N+](C)C(C)C8(C)C)C5=O)C(C)(C)C(C)N6C)cc3)=[N+](C)C(C)C4(C)C)C1=O)C(C)(C)C(C)N2C` (centres unmarked) [A-sq-3]: the solubility at 30 min was less than 10 µg/mL.
Regarding `O=C1C(c2ccc3cccc4c3c2NB(c2ccc(-c3ccc(B5Nc6cccc7ccc(C8=C(O)/C(=c9/ccc%10cccc%11c%10c9=NB(c9ccccc9)N%11)C8=O)c(c67)N5)cc3)cc2)N4)=C(O)/C1=c1/ccc2cccc3c2c1=NB(c1ccccc1)N3` [A-sq-5], the solubility at 30 min is less than 10 µg/mL.
Then `O=C1C(c2ccc3cccc4c3c2NC2(N4)c3ccccc3-c3ccccc32)=C(O)C1C1C=Cc2cccc3c2C1=NC1(N3)c2ccccc2-c2ccccc21` (centres unmarked) [compound 3, reference compound], with less than 10 µg/mL.

As usually defined, the solubility is how much of the substance goes into solution per volume.

These data come from patent US12312473B2, “Composition, film, near-infrared cut filter, pattern forming method, laminate, solid-state imaging element, infrared sensor, image display device, camera module, and compound” (FUJIFILM Corporation, priority 2019, dated 2025).
